# Measurements: patent EP2435019B1, “DODECA-2E,4E-DIENE AMIDES AND THEIR USE AS MEDICAMENTS AND COSMETICS” (Dr. August Wolff GmbH & Co. KG Arzneimittel, priority 2009, dated 2010)
# Where two headings read alike, the source gives them in different places.
# What was measured:
# FAAH [1] = settings: cited from earlier work
# CB2 [2] = biological target: T1, CB2 (Homo sapiens, UniProt P34972); assay: Radioligand displacement assay on CB2 receptor; type: binding; set-up: purchased Perkin Elmer RBXCB2M
# Description: (§1) For the CB1 receptor, binding experiments were performed in the presence of 0.39 nM of the radioligand [^3H]CP55,940 (168 Ci/mmol) (Perkin Elmer, Waltham, MA, US) at 30°C in siliconized glass vials together with 7.16 µg of membrane recombinantly over-expressing CB1 (No. RBHCB1M, Perkin Elmer, Waltham, MA, US), which was resuspended in 0.2 mL (final volume) binding-buffer (50 mM TRIS-HCl, 2.5 mM EGTA, 5 mM MgCl2, 0.5 mg/mL fatty acid free BSA, pH 7.4). Test compounds were present at varying concentrations and the nonspecific binding of the radioligand was determined in the presence of 10 µM CP55,940 (Tocris Cookson Ltd., Bristol, UK). After 1.5 h incubation, the suspension was rapidly filtered through 0.05% polyethylenimine pre-soaked GF/C glass fiber filters on a 96-well cell harvester and washed nine times with 0.5 mL ice-cold washing-buffer (50 mM TRIS-HCl, 2.5 mM EGTA, 5 mM MgCl2, 2% BSA, pH 7.4). Radioactivity on filters was measured with a Beckman LS 6500 scintillation counter in 3 mL Ultima Gold scintillation liquid (Perkin Elmer, Waltham, MA, US). Data collected from three independent experiments performed in triplicates were normalized between 100% and 0% specific binding for [^3H]CP55,940. […] Derived from the dissociation constant (KD) of [^3H]CP55,940 and the concentration-dependent displacement (IC50 value), inhibition constants (Ki) of competitor compounds were calculated using the Cheng-Prusoff equation [Ki = IC50/(1+ L/KD)].
# For CB2-receptor binding studies 3.8 µg of membrane recombinantly over-expressing CB2 (No. RBXCB2M, Perkin Elmer, Waltham, MA, US) were resuspended in 0.6 mL binding buffer (see above) together with 0.11 nM of the radioligand [^3H]CP55,940. The CB2-binding assay was conducted in the same manner as for CB1.
# PGE2 production = settings: at 50 µM; LaLone 2007; cited from earlier work
# FAAH [3] = biological target: T2, FAAH (Sus scrofa, UniProt Q9TUI8); assay: Fatty acid amide hydrolase (FAAH) inhibition, pig brain homogenate (assay D); type: biochemical; settings: 1 µM; pig brain homogenate (assay D)
# T2 construct: 165 µl of diluted pig brain homogenate; from tissue; host or cells: pig brain homogenate
# T2 sequence (Q9TUI8 1-579): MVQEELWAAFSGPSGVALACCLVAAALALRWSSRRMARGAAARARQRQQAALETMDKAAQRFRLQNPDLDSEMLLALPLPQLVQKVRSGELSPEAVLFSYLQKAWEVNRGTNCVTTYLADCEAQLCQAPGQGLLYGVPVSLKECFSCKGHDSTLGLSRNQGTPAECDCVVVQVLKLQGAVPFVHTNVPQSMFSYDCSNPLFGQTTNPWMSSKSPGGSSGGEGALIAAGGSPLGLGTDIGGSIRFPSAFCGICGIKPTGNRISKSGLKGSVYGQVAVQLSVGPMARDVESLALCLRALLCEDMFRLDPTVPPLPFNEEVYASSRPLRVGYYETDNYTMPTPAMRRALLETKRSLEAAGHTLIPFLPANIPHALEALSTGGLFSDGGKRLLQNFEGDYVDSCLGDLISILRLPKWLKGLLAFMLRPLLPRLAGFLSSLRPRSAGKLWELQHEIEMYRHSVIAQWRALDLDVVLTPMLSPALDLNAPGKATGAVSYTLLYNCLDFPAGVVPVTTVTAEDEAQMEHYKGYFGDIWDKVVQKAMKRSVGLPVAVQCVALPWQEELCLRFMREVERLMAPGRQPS
# Description: FAAH activity was assessed using pig brain homogenate according to the method described by Omeir et al., Arachidonoyl ethanolamide-[1,2-14C] as a substrate for anandamide amidase. Life Sci. 1995;56(23-24):1999-2005, and adapted by Fowler et al., Ibuprofen inhibits rat brain deamidation of anandamide at pharmacologically relevant concentrations. Mode of inhibition and structure-activity relationship. J Pharmacol Exp Ther. 1997 Nov;283(2):729-34. Briefly, 10 µl of test compounds at the adequate concentration or solvent were incubated at 37°C for 20 min with 165 µl of diluted pig brain homogenate in 10 mM Tris-HCl and 1 mM EDTA, pH 7.6 (corresponding to 100 µg/ml of total protein), 1% w/v fatty acid free BSA (Sigma, San Louis, MO, US) and 25 µl of a mixture 1:1 of nonradioactive AEA [^3H]-AEA (60 Ci mmol^-1) (concentration in the assay was 2 µM). Successively, 400 µl of a mixture 1:1 (v/v) of methanol:chloroform was added at each sample and, after vigorous vortexing, aqueous and organic phases were separated by centrifugation at 10000 rpm for 10 min. The radioactivity associated to the [^3H]-ethanolamine (produced by FAAH-catalysed breakdown of [^3H]-AEA) was measured upon addition of 3 ml of Ultima Gold scintillation liquid (Perkin Elmer, Waltham, MA, US) to 200 µl of the aqueous (upper) phase, using a Beckman LS6500 scintillation counter. Results were expressed as % of FAAH activity vs. pig brain homogenate treated only with solvent.
# [4] = Critical micelle concentration (CMC) measurement, dye micellization; type: physicochemical; settings: fluorescein dye micellization in water, pH 6.9, room temperature
# Description: Dye micellization was carried out with a modified version of the method described by Eliyahu et al., Novel dextran-spermine conjugates as transfecting agents: comparing water-soluble and micellar polymers. […] Experiments were carried out on 96-well microtiter plates (excitation at 485 nm, emission at 535 nm). Since the emission of fluorescein is pH-dependent, the pH of the mixture was kept constant at 6.9. The CMC range was determined as the concentration range where the first statistically significant increase in fluorescence was detected.
# [5] = tested on: RAW264.7 mouse macrophage cells; settings: at 50 µM; LaLone 2007; cited from earlier work
# CB1 [6] = biological target: CB1 (Rattus norvegicus, UniProt P20272); settings: Woelkart, Planta Med. 2005; cited from earlier work
# CB1 [7] = biological target: T3, CB1 (Homo sapiens, UniProt P21554); assay: Radioligand displacement assay on CB1 receptor; type: binding
# T3 construct: purchased Perkin Elmer RBHCB1M
# Description: as §1
# [8] = at 50 µM; Chen 2005; cited from earlier work
# [9] = tested on: Arachidonoylethanolamide Transport (AEAT); assay: Cellular uptake of [3H]-AEA in U937 cells (assay C); type: cell-based; settings: Homo sapiens, U-937; [3H]-AEA uptake, assay C (Tables 2 and 3)
# CB2 [10] = biological target: T1, CB2; settings: read-out: affinity towards CB2 receptors, Ki; Gertsch, Planta Med. 2008; cited from earlier work
# CB2 receptors = settings: Woelkart, Planta Med. 2005; cited from earlier work
# T1 sequence (P34972 whole entry): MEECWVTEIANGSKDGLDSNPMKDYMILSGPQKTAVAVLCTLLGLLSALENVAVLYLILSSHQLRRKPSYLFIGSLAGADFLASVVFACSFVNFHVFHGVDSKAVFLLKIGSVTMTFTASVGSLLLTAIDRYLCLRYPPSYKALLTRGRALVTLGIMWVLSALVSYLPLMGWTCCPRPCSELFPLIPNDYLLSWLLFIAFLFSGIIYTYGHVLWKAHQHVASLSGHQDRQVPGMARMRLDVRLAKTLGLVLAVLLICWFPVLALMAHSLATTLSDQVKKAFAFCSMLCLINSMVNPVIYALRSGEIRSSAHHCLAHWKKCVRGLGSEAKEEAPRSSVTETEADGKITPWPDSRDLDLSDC
# T3 sequence (P21554 whole entry): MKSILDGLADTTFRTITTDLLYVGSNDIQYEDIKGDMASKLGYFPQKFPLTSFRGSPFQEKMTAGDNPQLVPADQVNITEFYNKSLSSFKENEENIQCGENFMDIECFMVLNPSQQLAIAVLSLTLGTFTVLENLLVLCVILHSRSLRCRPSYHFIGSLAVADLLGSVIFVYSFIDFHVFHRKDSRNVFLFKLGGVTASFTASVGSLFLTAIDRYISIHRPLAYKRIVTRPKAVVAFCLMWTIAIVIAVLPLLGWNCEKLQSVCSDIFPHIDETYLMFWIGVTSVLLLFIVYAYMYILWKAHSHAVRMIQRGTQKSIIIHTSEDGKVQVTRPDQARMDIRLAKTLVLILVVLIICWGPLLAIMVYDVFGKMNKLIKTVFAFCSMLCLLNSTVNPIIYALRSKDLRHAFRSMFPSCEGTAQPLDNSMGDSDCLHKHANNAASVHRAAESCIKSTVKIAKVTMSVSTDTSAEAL
# CB1 (Rattus norvegicus, UniProt P20272), sequence (P20272 whole entry): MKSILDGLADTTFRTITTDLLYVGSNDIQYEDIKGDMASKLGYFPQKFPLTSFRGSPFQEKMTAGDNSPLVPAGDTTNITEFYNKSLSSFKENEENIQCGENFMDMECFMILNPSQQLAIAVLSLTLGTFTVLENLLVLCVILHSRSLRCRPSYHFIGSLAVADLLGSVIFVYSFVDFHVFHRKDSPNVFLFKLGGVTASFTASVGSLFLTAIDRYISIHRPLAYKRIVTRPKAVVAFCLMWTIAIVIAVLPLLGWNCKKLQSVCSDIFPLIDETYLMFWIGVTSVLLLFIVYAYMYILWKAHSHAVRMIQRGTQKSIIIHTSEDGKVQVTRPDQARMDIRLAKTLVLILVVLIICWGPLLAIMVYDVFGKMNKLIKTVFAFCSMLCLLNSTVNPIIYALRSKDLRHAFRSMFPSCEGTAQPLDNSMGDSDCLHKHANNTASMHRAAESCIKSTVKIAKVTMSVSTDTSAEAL
structure (smiles),measurement,setting,value
"CCCCCCC/C=C/C=C/C(=O)NCC(C)C [Compound A, (2E,4E)-N-isobutyldodeca-2,4-diene amide]",inhibition of FAAH,"FAAH [1]; Gertsch, Planta Med. 2008",did not inhibit
same,inhibition of FAAH,"FAAH [1]; Woelkart, Planta Med. 2005",very weak inhibitor
same,Ki,"CB2 [2]; displacement of 0.11 nM [3H]CP55,940, membrane recombinantly over-expressing CB2, read-out: Receptor affinity Ki CB2",60 ± 7 nM
same,affinity towards CB2 (in words),CB2 [2]; summary of Table 3,high affinity
same,PGE2 production,PGE2 production,inhibiting
same,FAAH inhibition at 1 µM,FAAH [3],<10 % of control
same,CMC,[4],<0.5 µM
same,cytotoxicity,[5],No significant cytotoxicity
same,affinity to CB1 receptor,CB1 [6],single digit micromolar range
same,Ki,"CB1 [7]; displacement of 0.39 nM [3H]CP55,940, membrane recombinantly over-expressing CB1, read-out: Receptor affinity Ki CB1",1940 ± 213 nM
same,affinity towards CB1 (in words),CB1 [7]; summary of Table 3,moderate affinity
same,cell death,[8],50%
same,EC50,[9],> 10 µM
same,Ki,CB2 [10],< 100 nM
same,affinity to CB2 receptor,CB2 receptors,single digit micromolar range
